Source: patent US12606552B2, “Bifunctional compound, preparation method therefor, and use thereof” (SUZHOU KINTOR PHARMACEUTICALS, INC., priority 2020, dated 2026)

What was measured:
[1] = system: androgenetic alopecia model in C57BL/6J mice; experiment: Hair regeneration effects on androgenic alopecia C57 mouse model (DHT-induced); format: in vivo, C57BL/6N mice; conditions: AVER n = 6, score 0-5
Source text: Activity Assay Example 8: Hair Regeneration Effects of Compounds on Androgenic Alopecia C57 Mouse Model
The purpose of this study was to compare the effect of the compounds prepared by the present invention as AR protein degraders on hair regrowth in an androgenetic alopecia model in C57BL/6J mice by transdermal application route of administration, and to provide data to support subsequent clinical trials.
2. Experimental Principle
Name of test compound I: dihydrotestosterone DHT; name of test compound II: compound A46 of the present invention; name of test compound III: minoxidil.
4. Experimental animals: strain: C57BL/6N mice; age: 6-7 weeks; gender: male; number of animals: 70 (10 for later use); rearing environment: specific pathogen-free (SPF).
70 mice were deeply anesthetized, and the hair on the back of the mice was removed with an animal shaver, then the depilatory cream (Veet https://item.jd.com/6291245.html) was smeared evenly on the surface of the mice skin, and left 7-10 minutes. Then the hair was gently scraped off with a hair removal scraper against the direction of the hair, and finally the residual hair removal cream on the skin surface was fully washed with water to avoid burning the mice skin.
This experiment was divided into 6 groups, and the DHT administration started on the day of hair removal, A46 is administered on day 2 after hair removal and is counted as day 1 (the day of hair removal is counted as day 0).
5.3 Test Compound Preparation Method
5.4 Observation and Measurement Indicators • 1) Body weight/g: From the first day of administration, body weight was weighed and recorded twice a week. • 2) Hair regeneration (anagen) score (0 points: no darkening of skin color in all areas; 1 point: darkening of gray skin color areas; 2 points: visible short hair; 3 points: thin hair; 4 points: thick hair; 5 points: full hair growth).
All mice were photographed on day 1 after hair removal, and then photographed and scored daily from day 4 until the end of the experiment. • 3) At the end of the experiment, skin and blood collection operations were performed as needed. 5.5 Criteria for Drug Withdrawal and Experiment Termination
Data are presented as average±standard error (AVE±SEM). One-way multi-level analysis of variance was used for statistics. The comparison between each drug group and the model group was performed by Stundent's t-test or rank sum test, and the p value was calculated. p<0.05 means there is a significant difference between the two groups, p<0.01 means there is a extremely significant difference between the two groups.

[2] = Distribution of compounds in sebaceous glands and blood in golden hamsters; format: in vivo; conditions: for mean drug concentration in sebaceous glands: after 8 h
Protocol: Activity Assay Example 9: Distribution of Compounds in Sebaceous Glands and Blood in Golden Hamsters
6 male golden hamsters were selected for the experiment and divided into two groups (three in each group). The drug was administered by a single smear route. All animals fasted overnight before administration.
1.1 Experimental Method 1.1.1 Dosage of Administration
A46 was weighed into a 50 ml centrifuge tube, added with mixed solvent (75% ethanol, 15% glyceryl tri(2-ethylhexanoate) and 10% glycerol), vortexed and heated at 60° C. until A46 was completely dissolved. A46 was prepared at a concentration of 30 mg/mL, 100 mg/mL, and stored at room temperature in the dark.
In group 1, the dosage for smear administration was 1.2 mg, corresponding to an administration volume of 30 mL/kg. In group 2, the dosage for smear administration was 4 mg, and the administration volume was 100 mL/kg.
1.1.2 Method of Administration
During the experiment, the 2 sebaceous glands of all the hamsters were coated with the corresponding medicinal solution (the dosage was about 0.02 mL).
1.1.3 Observation of Animal Status
Immediately after administration, whether the animals have abnormal reactions was observed. If there were no abnormal reactions, the animals were observed twice during the experiment. If any abnormal reactions were found, the number of observations was recorded and increased in time until the animals returned to normal, or the experiment ended.
1.1.4 Sample Collection and Storage
All experimental animals were fasted overnight before administration, and blood was collected at corresponding time points into blood collection tubes containing heparin sodium anticoagulant after administration. After collection of whole blood, the blood collection tube was immediately shook gently and placed on ice, then centrifuged (4° C., 4000 rpm, 10 min) to collect the supernatant plasma sample (plasma volume ≥100 μL), and the supernatant plasma sample was stored at −80° C. before analysis. Plasma sample was collected for 8 h.

## Cc1ncsc1-c1ccc(CNC(=O)[C@@H]2C[C@@H](O)CN2C(=O)[C@@H](NC(=O)COCCCCOc2ccc(-c3ccc(N4C(=S)N(c5ccc(C#N)c(C(F)(F)F)c5F)C(=O)C4(C)C)cn3)cc2)C(C)(C)C)cc1 [Compound A46]
[1]; 0.5% skin smear BID + DHT 30 mpk, 0 day
  Hair regeneration score: 0.00
[1]; 0.5% skin smear BID + DHT 30 mpk, 3 days
  Hair regeneration score: 0.00
[1]; 0.5% skin smear BID + DHT 30 mpk, 5 days
  Hair regeneration score: 0.00
[1]; 0.5% skin smear BID + DHT 30 mpk, 7 days
  Hair regeneration score: 0.00
[1]; 0.5% skin smear BID + DHT 30 mpk, 10 days
  Hair regeneration score: 0.33
[1]; 0.5% skin smear BID + DHT 30 mpk, 12 days
  Hair regeneration score: 0.50
[1]; 0.5% skin smear BID + DHT 30 mpk, 14 days
  Hair regeneration score: 1.00
[1]; 0.5% skin smear BID + DHT 30 mpk, 17 days
  Hair regeneration score: 1.67
[1]; 1% skin smear BID + DHT 30 mpk, 0 day
  Hair regeneration score: 0.00
[1]; 1% skin smear BID + DHT 30 mpk, 3 days
  Hair regeneration score: 0.00
[1]; 1% skin smear BID + DHT 30 mpk, 5 days
  Hair regeneration score: 0.00
[1]; 1% skin smear BID + DHT 30 mpk, 7 days
  Hair regeneration score: 0.00
[1]; 1% skin smear BID + DHT 30 mpk, 10 days
  Hair regeneration score: 0.33
[1]; 1% skin smear BID + DHT 30 mpk, 12 days
  Hair regeneration score: 0.83
[1]; 1% skin smear BID + DHT 30 mpk, 14 days
  Hair regeneration score: 1.50
[1]; 1% skin smear BID + DHT 30 mpk, 17 days
  Hair regeneration score: 2.00
[1]; 3% skin smear BID + DHT 30 mpk, 0 day
  Hair regeneration score: 0.00
[1]; 3% skin smear BID + DHT 30 mpk, 3 days
  Hair regeneration score: 0.00
[1]; 3% skin smear BID + DHT 30 mpk, 5 days
  Hair regeneration score: 0.00
[1]; 3% skin smear BID + DHT 30 mpk, 7 days
  Hair regeneration score: 0.00
[1]; 3% skin smear BID + DHT 30 mpk, 10 days
  Hair regeneration score: 0.50
[1]; 3% skin smear BID + DHT 30 mpk, 12 days
  Hair regeneration score: 1.17
[1]; 3% skin smear BID + DHT 30 mpk, 14 days
  Hair regeneration score: 1.83
[1]; 3% skin smear BID + DHT 30 mpk, 17 days
  Hair regeneration score: 2.83
[2]; group 1, single smear 1.2 mg (30 mg/mL)
  mean drug concentration in sebaceous glands: 13513 ng/mL
[2]; group 2, single smear 4 mg (100 mg/mL)
  mean drug concentration in sebaceous glands: 24223 ng/mL
[2]; group 2, single smear 4 mg (100 mg/mL), one out of 3 animals, sampling 0.25-8 h
  maximum blood concentration: 10.6 ng/mL
[2]; group 2, single smear 4 mg (100 mg/mL), remaining 2 animals, sampling 0.25-8 h
  blood concentration (below the detection limit): < 2 ng/mL
